For two molecules, AC50 results are on record in ChEMBL document CHEMBL5291721, “A preclinical secondary pharmacology resource illuminates target-adverse drug reaction associations of marketed drugs” (Nat Commun, 2023).

The term AC50 denotes the midpoint of the concentration-response curve, whichever way the signal moves.

Some targets named below: Adenosine receptor A2a (Homo sapiens, UniProt P29274); Vasopressin V1a receptor (Homo sapiens, UniProt P37288); Melanocortin receptor 3 (Homo sapiens, UniProt P41968); D(3) dopamine receptor (Homo sapiens, UniProt P35462).
The target of a further experiment is Bile salt export pump (Homo sapiens, UniProt O95342). The class given is functional.
Bile salt export pump, sequence (O95342 whole entry): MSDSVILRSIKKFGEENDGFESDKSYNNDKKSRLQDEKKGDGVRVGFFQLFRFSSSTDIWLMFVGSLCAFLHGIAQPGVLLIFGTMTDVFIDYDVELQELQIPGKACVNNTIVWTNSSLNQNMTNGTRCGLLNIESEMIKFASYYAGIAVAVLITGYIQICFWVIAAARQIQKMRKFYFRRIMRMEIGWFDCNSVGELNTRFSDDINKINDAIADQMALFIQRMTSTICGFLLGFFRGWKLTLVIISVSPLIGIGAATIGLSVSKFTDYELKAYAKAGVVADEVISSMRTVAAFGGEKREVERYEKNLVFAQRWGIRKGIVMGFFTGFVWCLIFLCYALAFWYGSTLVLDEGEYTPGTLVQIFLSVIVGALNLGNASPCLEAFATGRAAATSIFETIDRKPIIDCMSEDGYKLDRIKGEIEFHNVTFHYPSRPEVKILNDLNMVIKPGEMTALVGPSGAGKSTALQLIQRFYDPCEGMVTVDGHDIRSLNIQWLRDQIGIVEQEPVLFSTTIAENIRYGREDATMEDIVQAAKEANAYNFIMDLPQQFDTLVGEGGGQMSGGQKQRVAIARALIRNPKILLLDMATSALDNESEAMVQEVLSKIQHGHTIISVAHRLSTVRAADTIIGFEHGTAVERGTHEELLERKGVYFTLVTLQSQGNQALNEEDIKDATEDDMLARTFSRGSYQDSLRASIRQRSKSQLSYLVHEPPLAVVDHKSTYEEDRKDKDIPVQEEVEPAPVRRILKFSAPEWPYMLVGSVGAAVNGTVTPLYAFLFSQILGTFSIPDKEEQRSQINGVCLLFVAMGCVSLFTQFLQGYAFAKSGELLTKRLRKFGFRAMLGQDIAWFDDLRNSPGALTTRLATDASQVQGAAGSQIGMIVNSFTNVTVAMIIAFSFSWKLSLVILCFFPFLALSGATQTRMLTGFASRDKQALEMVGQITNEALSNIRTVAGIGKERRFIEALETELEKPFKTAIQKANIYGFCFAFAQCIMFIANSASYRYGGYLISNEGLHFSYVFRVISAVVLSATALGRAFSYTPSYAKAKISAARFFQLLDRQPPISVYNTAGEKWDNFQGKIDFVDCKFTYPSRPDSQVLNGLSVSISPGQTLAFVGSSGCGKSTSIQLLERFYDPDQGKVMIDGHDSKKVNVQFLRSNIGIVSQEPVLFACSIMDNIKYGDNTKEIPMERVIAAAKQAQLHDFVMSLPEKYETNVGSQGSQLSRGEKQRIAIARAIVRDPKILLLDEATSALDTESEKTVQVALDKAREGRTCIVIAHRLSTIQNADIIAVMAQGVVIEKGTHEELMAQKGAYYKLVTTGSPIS
The target in experiment [1] is T1, Alpha-2C adrenergic receptor (Homo sapiens, UniProt P18825).
T1 sequence (P18825 whole entry): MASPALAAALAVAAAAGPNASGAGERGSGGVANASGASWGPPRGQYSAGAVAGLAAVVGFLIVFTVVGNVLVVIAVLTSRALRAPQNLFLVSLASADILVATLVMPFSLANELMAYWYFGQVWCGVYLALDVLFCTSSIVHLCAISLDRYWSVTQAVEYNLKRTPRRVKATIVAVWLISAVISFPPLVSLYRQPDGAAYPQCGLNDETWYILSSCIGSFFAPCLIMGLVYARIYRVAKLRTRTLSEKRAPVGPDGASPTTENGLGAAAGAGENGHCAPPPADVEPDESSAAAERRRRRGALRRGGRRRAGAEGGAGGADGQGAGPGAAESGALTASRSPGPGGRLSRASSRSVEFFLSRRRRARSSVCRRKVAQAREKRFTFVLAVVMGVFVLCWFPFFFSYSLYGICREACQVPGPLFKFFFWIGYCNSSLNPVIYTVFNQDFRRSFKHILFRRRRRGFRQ
The class given is functional.

Experiment [2] addresses Beta-1 adrenergic receptor (Homo sapiens, UniProt P08588). The class given is functional.
Experiment [3] concerns the target T2, Type-1 angiotensin II receptor (Homo sapiens, UniProt P30556).
T2 sequence (P30556 whole entry): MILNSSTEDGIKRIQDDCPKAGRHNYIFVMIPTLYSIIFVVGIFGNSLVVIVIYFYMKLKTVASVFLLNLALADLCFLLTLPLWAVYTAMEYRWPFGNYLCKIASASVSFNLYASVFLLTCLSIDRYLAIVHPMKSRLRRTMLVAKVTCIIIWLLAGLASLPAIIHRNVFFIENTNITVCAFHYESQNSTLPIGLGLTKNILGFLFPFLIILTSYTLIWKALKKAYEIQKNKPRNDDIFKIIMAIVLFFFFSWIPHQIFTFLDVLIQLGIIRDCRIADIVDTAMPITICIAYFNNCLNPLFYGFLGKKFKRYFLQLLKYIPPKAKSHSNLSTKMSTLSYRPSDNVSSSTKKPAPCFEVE

Experiment [4] has as its target Gamma-aminobutyric acid receptor subunit alpha-1 (Rattus norvegicus, UniProt P62813). The class given is functional.
Experiment [5] concerns the target Growth hormone secretagogue receptor type 1 (Homo sapiens, UniProt Q92847).
The target of experiment [6] is T3, 5-hydroxytryptamine receptor 1A (Homo sapiens, UniProt P08908).
T3 sequence (P08908 whole entry): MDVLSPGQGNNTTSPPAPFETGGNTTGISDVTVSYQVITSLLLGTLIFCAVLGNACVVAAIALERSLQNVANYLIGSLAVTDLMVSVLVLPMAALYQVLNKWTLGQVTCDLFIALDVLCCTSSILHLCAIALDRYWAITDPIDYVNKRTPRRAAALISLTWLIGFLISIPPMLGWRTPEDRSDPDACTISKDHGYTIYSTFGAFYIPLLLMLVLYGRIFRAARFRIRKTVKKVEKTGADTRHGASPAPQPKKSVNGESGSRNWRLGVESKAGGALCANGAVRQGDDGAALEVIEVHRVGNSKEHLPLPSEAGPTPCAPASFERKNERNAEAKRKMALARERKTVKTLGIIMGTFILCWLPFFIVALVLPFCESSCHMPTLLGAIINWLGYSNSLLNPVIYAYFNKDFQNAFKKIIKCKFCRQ
The class given is functional, cell-based.

For experiment [7], the target named is 5-hydroxytryptamine receptor 2B (Homo sapiens, UniProt P41595). The format is functional, cell-based.
5-hydroxytryptamine receptor 2B, sequence (P41595 whole entry): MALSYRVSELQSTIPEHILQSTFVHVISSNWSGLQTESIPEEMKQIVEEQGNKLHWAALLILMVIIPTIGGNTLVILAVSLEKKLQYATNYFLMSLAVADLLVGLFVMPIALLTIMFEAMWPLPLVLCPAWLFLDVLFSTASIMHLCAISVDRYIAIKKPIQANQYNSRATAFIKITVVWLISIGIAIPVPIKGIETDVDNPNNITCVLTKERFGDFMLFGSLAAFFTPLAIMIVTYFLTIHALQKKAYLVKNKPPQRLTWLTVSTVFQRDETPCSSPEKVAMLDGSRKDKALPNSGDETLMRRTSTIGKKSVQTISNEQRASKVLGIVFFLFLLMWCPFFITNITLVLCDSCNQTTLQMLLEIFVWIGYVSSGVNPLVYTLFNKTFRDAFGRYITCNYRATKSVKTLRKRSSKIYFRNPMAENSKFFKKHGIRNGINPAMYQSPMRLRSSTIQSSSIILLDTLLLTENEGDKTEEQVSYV
The target of experiment [8] is T4, 5-hydroxytryptamine receptor 2C (Homo sapiens, UniProt P28335).
T4 sequence (P28335 whole entry): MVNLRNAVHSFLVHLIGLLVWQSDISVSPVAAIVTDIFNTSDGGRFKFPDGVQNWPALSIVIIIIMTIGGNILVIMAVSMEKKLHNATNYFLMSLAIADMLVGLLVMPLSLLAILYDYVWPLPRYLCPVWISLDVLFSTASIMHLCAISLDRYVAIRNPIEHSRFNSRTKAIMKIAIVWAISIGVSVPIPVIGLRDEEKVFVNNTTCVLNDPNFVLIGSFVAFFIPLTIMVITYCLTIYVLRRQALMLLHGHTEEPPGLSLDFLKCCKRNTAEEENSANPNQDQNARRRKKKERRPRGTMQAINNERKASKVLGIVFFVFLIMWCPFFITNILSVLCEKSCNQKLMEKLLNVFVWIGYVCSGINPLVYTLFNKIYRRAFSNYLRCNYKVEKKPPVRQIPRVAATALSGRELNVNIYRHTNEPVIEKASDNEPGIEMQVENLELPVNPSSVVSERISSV

For experiment [9], the target named is T5, Equilibrative nucleoside transporter 1 (Homo sapiens, UniProt Q99808).
T5 sequence (Q99808 whole entry): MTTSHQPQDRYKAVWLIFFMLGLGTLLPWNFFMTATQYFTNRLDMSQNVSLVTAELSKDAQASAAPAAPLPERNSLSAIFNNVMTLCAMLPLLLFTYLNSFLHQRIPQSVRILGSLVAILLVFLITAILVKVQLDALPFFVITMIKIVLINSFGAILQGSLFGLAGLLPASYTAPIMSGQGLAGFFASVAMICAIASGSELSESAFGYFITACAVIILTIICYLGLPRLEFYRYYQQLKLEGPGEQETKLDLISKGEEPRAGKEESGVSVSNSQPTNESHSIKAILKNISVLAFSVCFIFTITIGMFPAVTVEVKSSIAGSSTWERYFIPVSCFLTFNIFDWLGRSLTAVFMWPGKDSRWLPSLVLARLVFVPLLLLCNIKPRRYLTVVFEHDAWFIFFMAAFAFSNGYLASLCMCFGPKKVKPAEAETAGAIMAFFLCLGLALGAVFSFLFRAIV

Experiment [10] deals with Sodium-dependent dopamine transporter (Homo sapiens, UniProt Q01959).
Sodium-dependent dopamine transporter, sequence (Q01959 whole entry): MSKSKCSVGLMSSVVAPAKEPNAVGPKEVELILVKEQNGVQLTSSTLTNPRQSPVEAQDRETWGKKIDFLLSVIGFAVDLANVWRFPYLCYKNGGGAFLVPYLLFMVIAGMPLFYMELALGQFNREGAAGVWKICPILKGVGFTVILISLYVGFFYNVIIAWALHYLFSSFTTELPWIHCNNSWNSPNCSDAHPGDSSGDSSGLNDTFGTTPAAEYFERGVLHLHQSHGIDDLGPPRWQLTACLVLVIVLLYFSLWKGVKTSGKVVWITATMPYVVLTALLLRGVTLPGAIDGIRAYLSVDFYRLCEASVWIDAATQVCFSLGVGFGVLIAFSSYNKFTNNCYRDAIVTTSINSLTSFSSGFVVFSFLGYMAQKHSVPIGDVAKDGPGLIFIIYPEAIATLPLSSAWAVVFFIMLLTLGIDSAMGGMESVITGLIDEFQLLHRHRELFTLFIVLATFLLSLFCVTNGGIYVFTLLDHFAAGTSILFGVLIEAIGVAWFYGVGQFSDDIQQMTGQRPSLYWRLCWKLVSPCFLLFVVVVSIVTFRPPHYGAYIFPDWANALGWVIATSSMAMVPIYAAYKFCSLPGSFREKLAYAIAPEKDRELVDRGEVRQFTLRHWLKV

Molecules are shown by their SMILES.
Further: assay procedure not described here.

Beta-1 adrenergic receptor, sequence (P08588 whole entry): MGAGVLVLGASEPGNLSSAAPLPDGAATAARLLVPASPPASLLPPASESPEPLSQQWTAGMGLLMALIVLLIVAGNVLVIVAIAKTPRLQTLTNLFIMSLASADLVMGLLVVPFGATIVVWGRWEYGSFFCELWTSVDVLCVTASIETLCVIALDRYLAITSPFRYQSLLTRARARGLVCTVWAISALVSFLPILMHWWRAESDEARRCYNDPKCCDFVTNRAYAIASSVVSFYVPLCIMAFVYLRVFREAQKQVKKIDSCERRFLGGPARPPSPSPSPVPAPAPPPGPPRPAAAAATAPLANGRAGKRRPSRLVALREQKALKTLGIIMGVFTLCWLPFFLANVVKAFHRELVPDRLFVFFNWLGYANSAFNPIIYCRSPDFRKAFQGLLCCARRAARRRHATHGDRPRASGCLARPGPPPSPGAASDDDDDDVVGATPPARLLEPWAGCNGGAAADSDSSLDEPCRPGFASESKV
Vasopressin V1a receptor, sequence (P37288 whole entry): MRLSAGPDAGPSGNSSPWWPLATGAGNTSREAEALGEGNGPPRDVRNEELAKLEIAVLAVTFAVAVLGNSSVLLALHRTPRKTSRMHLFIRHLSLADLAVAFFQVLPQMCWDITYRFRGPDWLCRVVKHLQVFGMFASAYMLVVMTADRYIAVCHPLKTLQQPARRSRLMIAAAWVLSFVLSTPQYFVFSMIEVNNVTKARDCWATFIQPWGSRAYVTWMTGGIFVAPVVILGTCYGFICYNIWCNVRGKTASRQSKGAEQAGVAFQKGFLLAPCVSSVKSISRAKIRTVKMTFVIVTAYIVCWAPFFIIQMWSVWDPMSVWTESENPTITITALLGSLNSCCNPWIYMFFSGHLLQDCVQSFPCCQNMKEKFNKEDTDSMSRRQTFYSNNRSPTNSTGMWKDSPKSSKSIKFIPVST
Gamma-aminobutyric acid receptor subunit alpha-1, sequence (P62813 whole entry): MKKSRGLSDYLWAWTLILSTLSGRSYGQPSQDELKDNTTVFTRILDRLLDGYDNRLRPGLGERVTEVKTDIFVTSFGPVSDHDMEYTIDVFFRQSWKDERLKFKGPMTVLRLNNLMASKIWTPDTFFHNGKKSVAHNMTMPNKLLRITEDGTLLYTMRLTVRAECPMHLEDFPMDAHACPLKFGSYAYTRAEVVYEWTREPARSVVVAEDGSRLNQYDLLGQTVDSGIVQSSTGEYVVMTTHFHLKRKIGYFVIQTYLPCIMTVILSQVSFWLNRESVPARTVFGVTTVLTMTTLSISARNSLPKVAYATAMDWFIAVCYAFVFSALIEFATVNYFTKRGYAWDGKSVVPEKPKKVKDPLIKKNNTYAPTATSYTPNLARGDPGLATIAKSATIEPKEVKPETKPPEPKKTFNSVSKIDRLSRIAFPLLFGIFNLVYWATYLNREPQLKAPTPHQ
D(3) dopamine receptor, sequence (P35462 whole entry): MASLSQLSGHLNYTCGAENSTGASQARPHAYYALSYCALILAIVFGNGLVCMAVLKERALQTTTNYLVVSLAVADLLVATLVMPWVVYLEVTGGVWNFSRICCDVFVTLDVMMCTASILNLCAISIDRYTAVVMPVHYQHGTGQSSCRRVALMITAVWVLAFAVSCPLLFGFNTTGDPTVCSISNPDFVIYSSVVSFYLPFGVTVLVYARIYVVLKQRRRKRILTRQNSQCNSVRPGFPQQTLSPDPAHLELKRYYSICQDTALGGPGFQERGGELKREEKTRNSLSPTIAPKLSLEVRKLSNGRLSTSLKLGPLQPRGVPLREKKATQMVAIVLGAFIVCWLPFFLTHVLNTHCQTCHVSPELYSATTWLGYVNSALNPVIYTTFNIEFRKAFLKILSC
Adenosine receptor A2a, sequence (P29274 whole entry): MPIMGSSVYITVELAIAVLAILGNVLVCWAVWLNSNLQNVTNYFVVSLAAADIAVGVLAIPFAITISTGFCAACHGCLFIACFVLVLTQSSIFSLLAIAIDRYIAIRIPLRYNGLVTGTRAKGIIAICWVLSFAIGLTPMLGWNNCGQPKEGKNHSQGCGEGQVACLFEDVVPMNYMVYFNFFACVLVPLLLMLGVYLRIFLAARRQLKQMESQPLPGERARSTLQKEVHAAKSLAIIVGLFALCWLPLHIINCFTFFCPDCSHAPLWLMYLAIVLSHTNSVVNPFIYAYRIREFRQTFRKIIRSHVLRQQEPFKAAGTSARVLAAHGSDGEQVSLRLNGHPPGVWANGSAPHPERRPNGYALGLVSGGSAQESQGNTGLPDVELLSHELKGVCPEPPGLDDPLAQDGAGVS
Melanocortin receptor 3, sequence (P41968 whole entry): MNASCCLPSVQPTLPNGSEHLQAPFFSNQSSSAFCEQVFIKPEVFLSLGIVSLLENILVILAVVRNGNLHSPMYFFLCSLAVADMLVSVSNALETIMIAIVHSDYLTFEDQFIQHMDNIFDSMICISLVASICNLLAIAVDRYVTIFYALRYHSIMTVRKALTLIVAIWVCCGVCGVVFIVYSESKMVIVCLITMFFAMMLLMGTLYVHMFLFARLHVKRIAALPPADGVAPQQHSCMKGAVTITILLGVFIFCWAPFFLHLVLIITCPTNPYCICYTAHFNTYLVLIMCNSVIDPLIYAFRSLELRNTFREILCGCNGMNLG

For `Cc1cn([C@H]2C[C@H](N=[N+]=[N-])[C@@H](CO)O2)c(=O)[nH]c1=O` [ZIDOVUDINE], the half-maximal activity concentration (AC50) at Bile salt export pump was over 300 µM; on Adenosine receptor A2a, over 30 µM; in experiment [1] it was over 10 µM; in experiment [2], over 10 µM; in experiment [3] it was over 30 µM; on Vasopressin V1a receptor it was over 10 µM. Moreover, the AC50 is over 10 µM in [4]; over 30 µM in experiment [5]; over 10 µM in experiment [6]; over 10 µM in experiment [7]; over 30 µM in [8]; over 30 µM on Melanocortin receptor 3. For the same molecule, the half-maximal activity concentration (AC50) is over 30 µM in [9], over 10 µM in experiment [10] and over 10 µM at D(3) dopamine receptor.

Consider `NS(=O)(=O)Cc1noc2ccccc12` [ZONISAMIDE], for which the AC50 is over 300 µM at Bile salt export pump; over 10 µM at Adenosine receptor A2a; over 10 µM in experiment [1]; over 10 µM in experiment [2]; over 10 µM in experiment [3]; over 10 µM on Vasopressin V1a receptor. The AC50 in experiment [4] is over 10 µM; in experiment [5], over 10 µM; in experiment [6], over 10 µM; in [7], over 10 µM; in experiment [8], over 30 µM; on Melanocortin receptor 3, over 10 µM. The AC50 was over 10 µM in [9], over 10 µM in [10] and over 30 µM at D(3) dopamine receptor.
